For experiment [1], the target named is T1, ZmCKX1 (cytokinin oxidase/dehydrogenase) (Zea mays, UniProt Q9T0N8).
T1 construct: gene CKX1
The experiment in a line: DCPIP reduction assay with purified ZmCKX1, trans-zeatin substrate; Lineweaver-Burk; Ki from IC50 ([…]) by Cheng-Prusoff. In kind it is biochemical.

Experiment [2] deals with T1, ZmCKX1 (cytokinin oxidase/dehydrogenase). The experiment is described as follows: DCPIP reduction assay with purified ZmCKX1, trans-zeatin substrate; Ki from IC50 ([…]) by Cheng-Prusoff. In kind it is biochemical.

pKi: −log10 of the molar value.

T1 sequence (Q9T0N8 19-534): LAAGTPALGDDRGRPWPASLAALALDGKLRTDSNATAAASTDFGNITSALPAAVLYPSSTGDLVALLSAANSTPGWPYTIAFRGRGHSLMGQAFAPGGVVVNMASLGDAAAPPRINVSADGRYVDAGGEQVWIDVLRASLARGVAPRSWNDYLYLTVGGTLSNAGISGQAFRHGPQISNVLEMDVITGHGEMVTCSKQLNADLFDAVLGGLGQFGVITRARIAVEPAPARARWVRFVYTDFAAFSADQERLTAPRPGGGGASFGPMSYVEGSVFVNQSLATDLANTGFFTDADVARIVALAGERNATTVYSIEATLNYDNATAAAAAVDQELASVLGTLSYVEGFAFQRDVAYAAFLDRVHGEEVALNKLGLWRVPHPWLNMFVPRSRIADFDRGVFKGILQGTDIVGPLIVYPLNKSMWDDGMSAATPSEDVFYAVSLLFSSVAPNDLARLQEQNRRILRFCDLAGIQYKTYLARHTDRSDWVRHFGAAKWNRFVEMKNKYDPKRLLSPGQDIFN

A word on the pKi: it is −log10 of the Ki, conventionally taken in molar units. Higher therefore signals a small Ki. Regarding `O=C(Nc1cccc2c1OCO2)Nc1cccc2c1OCO2` [2,3-MDPU, N,N′-bis-(2,3-methylenedioxyphenyl)urea], in experiment [1], the pKi was 5.80.

The molecule `O=C(Nc1ccccc1)Nc1cnns1` [TDZ, N-phenyl-N′-(1,2,3-thiadiazol-5-yl)urea] showed a pKi in experiment [2] of 5.85.

For the origin of these results see publication PMC10610038, “New Insights into the Enhancement of Adventitious Root Formation Using N,N′-Bis(2,3-methylenedioxyphenyl)urea” (Plants, 2023).
